Data: article PMC10384408, “Anticancer Tungstenocenes with a Diverse Set of (O,O–), (O,S–) and (O,N–) Chelates—A Detailed Biological Study Using an Improved Evaluation via 3D Spheroid Models” (Pharmaceutics, 2023)
Read-outs that look alike come from different tables or passages of the source.

What was measured:
[1] = system: IMR-90 human lung fibroblasts; assay: MTT cytotoxicity assay, IMR-90 fibroblasts; format: cell-based; conditions: exposure time 96 h, mean ± SD
Description: (§1) CH1/PA-1 (ovarian teratocarcinoma), SW480 (colon carcinoma) and A549 (non-small cell lung cancer) cells were maintained as described in the reference. IMR-90 human fetal lung fibroblasts (from the European Collection of Authenticated Cell Cultures, Porton Down, Salisbury, UK) were cultured in Stable Cell^TM DMEM/F12 supplemented with 0.01 mg/mL human recombinant insulin (both purchased from Sigma-Aldrich) and 10% fetal bovine serum (FBS, BioWest, Nuaillé, France). Human colon carcinoma cell lines HCT116 and HT29 (both kindly provided by the Institute of Cancer Research, Department of Medicine I, Medical University of Vienna, Austria) were cultured in McCoy’s 5a medium supplemented with 4 mM L-glutamine (both purchased from Sigma-Aldrich) and 10% FBS. MCF-7 human breast adenocarcinoma cells (kindly provided by M. Ogris, Department of Pharmaceutical Sciences, University of Vienna, Austria) were maintained in DMEM (high glucose) supplemented with 4 mM L-glutamine, 0.1 mg/mL human insulin (all purchased from Sigma-Aldrich) and 10% FBS. All cell lines were grown as monolayers in 75 cm^2 culture flasks (CytoOne, Starlab, Hamburg, Germany) at 37 °C in a humidified atmosphere containing 5% CO2.
(§2) Exponentially growing cells were plated into 96-well microculture plates (CytoOne, tissue culture treated, Starlab, Hamburg, Germany) in densities of 1 × 10^3 CH1/PA-1, 2 × 10^3 SW480, 3 × 10^3 A549 and 7 × 10^3 IMR-90 cells per well (each in 100 µL). After a 24 h preincubation, drugs were added in serial dilution to give a final volume of 200 µL/well and exposed for 96 h. At the end of the exposure, the drug solutions were replaced by 100 µL RPMI 1640/MTT mixture (7:1 ratio). MTT (3-(4,5-dimethylthiazol-2-yl)-2,5-diphenyl-2H-tetrazolium bromide), (Acros Organics, Geel, Belgium) solution was prepared in phosphate-buffered saline (5 mg/mL) and mixed with RPMI1640 medium supplemented with 4 mM L-glutamine (both from Sigma-Aldrich) and 10% FBS. After 4 h incubation, the formazan crystals were solubilized in 150 µL of DMSO per well. Absorbance was measured at 550 nm (and at 690 nm as a reference) with a microplate reader (ELx808, BioTek, Winoosky, VT, USA) and Gen5^TM 3.08 software (BioTek). The 50% inhibitory concentrations (IC50) relative to untreated controls were interpolated from concentration-effect curves. At least three biologically and technically independent experiments were performed.

[2] = system: A549 (non-small cell lung carcinoma) cells; conditions: MTT assay, 96 h; cited from earlier work
[3] = system: SW480 (colon carcinoma) cells; conditions: MTT assay, 96 h; cited from earlier work
[4] = system: CH1/PA-1 (ovarian teratocarcinoma) cells; conditions: MTT assay, 96 h; cited from earlier work
[5] = system: A549 (non-small cell lung carcinoma) cells; assay: MTT cytotoxicity assay, A549 monolayer; format: cell-based, human
Description: as §1, §2

[6] = system: SW480 (colon carcinoma) cells; assay: MTT cytotoxicity assay, SW480 monolayer; format: cell-based, human
Description: as §1, §2

[7] = system: CH1/PA-1 (ovarian teratocarcinoma) cells; assay: MTT cytotoxicity assay, CH1/PA-1 monolayer; format: cell-based, human; conditions: exposure time 96 h, mean ± SD
Description: as §1, §2

HCT116 cells [8] = assay: Resazurin assay, HCT116 2D monolayer; format: cell-based, human; conditions: 96 h
Description: as §1
(§3) For the resazurin assay in monolayer cultures, cells were seeded into 96-well microculture plates (CytoOne, tissue culture treated, Starlab, Hamburg, Germany) in densities of 2 × 10^3 HCT116, 2 × 10^3 HT29 and 4 × 10^3 MCF-7 cells per well (each in 100 µL). For tests in 3D cultures, spheroids were grown as described above. After 24 h (for monolayers) or 4 days (for spheroids) the test compounds in the appropriate medium were added in serial dilution to the plates to obtain a total volume of 200 µL/well. Wells without cells, containing medium and resazurin (Alfa Aesar, Thermo Fisher, Kandel, Germany) solution were used as blanks. After 96 h exposure 20 µL of the resazurin solution (440 µM) were added to each well, followed by a 4 h (2D) or 12 h (3D) incubation period. Resorufin fluorescence was quantified at 530 nm (and a reference wavelength of 620 nm) by using a microplate reader (Synergy HT, BioTek) with Gen5^TM 3.10 software (BioTek).

[9] = system: HCT116 multicellular tumor spheroids; assay: Resazurin assay, HCT116 3D spheroids; format: cell-based, human; conditions: 96 h, spheroids
Description: as §1
(§4) For growing multicellular tumor spheroids, 400 HCT116, 400 HT29 or 800 MCF-7 cells per well were plated into round-bottom ultra-low attachment 96-well plates (Corning, Glendale, AZ, USA) in the media described above and incubated at 37 °C for 96 h. Spheroids were treated with 10 µM of the two most cytotoxic compounds 3 and 4 for another 96 h. The diameters of the spheroids were measured with Cell^F software under a CKX41 Olympus microscope before treatment and in constant daily intervals over the 96 h treatment period. For statistical analysis the t-test with Welsh’s correction was implemented in GraphPad Prism software (Version 6.01).
as §3

HT29 cells [10] = assay: Resazurin assay, HT29 2D monolayer; format: cell-based, human; conditions: 96 h
Description: as §1, §3

[11] = system: HT29 multicellular tumor spheroids; assay: Resazurin assay, HT29 3D spheroids; format: cell-based, human; conditions: 96 h, spheroids
Description: as §1, §4, §3

MCF-7 cells [12] = assay: Resazurin assay, MCF-7 2D monolayer; format: cell-based, human; conditions: 96 h
Description: as §1, §3

[13] = system: MCF-7 multicellular tumor spheroids; assay: Resazurin assay, MCF-7 3D spheroids; format: cell-based, human; conditions: 96 h, spheroids
Description: as §1, §4, §3

[14] = Solubility in PBS (1% DMSO); format: physicochemical
Description: Stock solutions in DMSO of compounds 1–10 were utilized to determine the solubility in PBS by adding 1 vol% of the stock solution to a suitable amount of PBS. […] UV/Vis data were recorded on a Perkin Elmer Lambda 650 UV/Vis Spectrophotometer with a Peltier element for temperature control.

[15] = system: HCT116, HT29 and MCF-7 cell lines; assay: ROS detection (DCFH-DA assay); format: cell-based, human; conditions: 2, 20, 100 and 200 µM, 2 h
Description: Reactive oxygen species (ROS) generation was measured by means of the DCFH-DA assay. […] On the following day, cells were washed with 200 µL Hanks’ balanced salt solution (HBSS, Sigma-Aldrich, containing 1% FBS) and stained with 100 µL of 25 µM DCFH-DA (2′,7′-dichlorofluorescein diacetate, Sigma-Aldrich) in HBSS (containing 1% FBS) for 45 min at 37 °C in the dark. After the incubation period, cells were washed with 200 µL HBSS (1% FBS) and loaded with compounds at concentrations of 2 µM, 20 µM, 100 µM and 200 µM in 200 µL phenol-red-free MEM (1% FBS) in triplicates. As positive controls, cells were treated with 200 µM and 400 µM tert-butylhydroperoxide (Sigma-Aldrich). Wells containing only phenol-red-free medium with 1% FBS were used as blanks, and non-drug treated, cell containing wells as reference values. Fluorescence (excitation: 485/20 nm, emission: 516/20 nm) was recorded in 10 min intervals with the Synergy HT reader (BioTek) over 2 h.

HCT116 cells [16] = assay: Annexin V-FITC/PI apoptosis assay, HCT116; format: cell-based, human; conditions: HCT116, 24 h, 200 µM
HT29 cells [17] = assay: Annexin V-FITC/PI apoptosis assay, HT29; conditions: HT29, 24 h, 200 µM
MCF-7 cells [18] = assay: Annexin V-FITC/PI apoptosis assay, MCF-7; conditions: MCF-7, 24 h, 200 µM

## N.N.[Cl][Pt][Cl] [Cisplatin]
[1]
  IC50: 14 ± 1 µM
[2]
  IC50: 3.8 ± 1 µM
[3]
  IC50: 2.3 ± 0.2 µM
[4]
  IC50: 0.073 ± 0.001 µM

## Cc1occc(=O)c1[O-].[Cl-].[W+4].c1cc[cH-]c1.c1cc[cH-]c1 [Compound 1A, Bis(η^5-cyclopentadienyl)[2-methyl-3-(oxo-κO)-4-(1H)-pyran-4-ato-κO]tungsten(IV) chloride]
[5]; 96 h
  activity in A549: no activity was observed
[5]; exposure time 96 h, mean ± SD
  IC50: > 200 µM
[6]; 96 h
  activity in SW480: no activity was observed
[6]; exposure time 96 h, mean ± SD
  IC50: > 200 µM
[7]
  IC50: 147 ± 18 µM
HCT116 cells [8]
  IC50: > 200 µM
[9]
  IC50: > 200 µM
HT29 cells [10]
  IC50: > 200 µM
[11]
  IC50: > 200 µM
MCF-7 cells [12]
  IC50: > 200 µM
[13]
  IC50: > 200 µM
[14]
  Solubility in PBS (1% DMSO): 5000 µg/mL
[15]
  intracellular ROS levels: Pronounced elevation of ROS levels
HCT116 cells [16]
  early apoptotic cells [%] AV+ / PI-: 5.6 ± 2.1%
  late apoptotic cells [%] AV+ / PI+: 16.1 ± 4.6%
  necrotic cells [%] AV- / PI+: 3.8 ± 2.1%
  viable cells [%] AV- / PI-: 74.5 ± 7.0%
HCT116 cells [16]; sum of early and late
  ∑apoptotic cells [%]: 21.7%
HT29 cells [17]
  early apoptotic cells [%] AV+ / PI-: 3.5 ± 2.5%
  late apoptotic cells [%] AV+ / PI+: 4.3 ± 0.9%
  necrotic cells [%] AV- / PI+: 4.4 ± 4.8%
  viable cells [%] AV- / PI-: 87.8 ± 4.0%
HT29 cells [17]; sum of early and late
  ∑apoptotic cells [%]: 7.8%
MCF-7 cells [18]
  early apoptotic cells [%] AV+ / PI-: 1.1 ± 0.6%
  late apoptotic cells [%] AV+ / PI+: 3.2 ± 1.3%
  necrotic cells [%] AV- / PI+: 2.3 ± 0.5%
  viable cells [%] AV- / PI-: 94.3 ± 2.3%
MCF-7 cells [18]; sum of early and late
  ∑apoptotic cells [%]: 4.3%
